Data set [1] is described as follows: Antiproliferative activity against human SK-RC-20 cells assessed as inhibition of cell growth measured at 72 hrs by MTT assay. The format is functional, cell-based. The note with it: SK-RC-20, 72 h. Background: Tetrazolium dyes change colour on reduction, which living cells bring about.
Data set [2] in a line: Stability in mouse serum at 5 uM measured after 4 hrs by HPLC analysis. The data set is classed as ADME, cell-free. As to conditions: for Stability: serum, 4 h, 5 µM.
Data set [3] is described as follows: Antiproliferative activity against human SK-RC-20 cells assessed as inhibition of cell growth measured at 24 hrs by MTT assay. The data set is classed as functional, cell-based. As to conditions: SK-RC-20, 24 h.
Data set [4] is described as follows: Binding affinity to Syntenin PDZ1 domain (unknown origin) assessed as dissociation constant by MST analysis. More on the design: species or system Homo sapiens.
Data set [5] in a line: Antiproliferative activity against human SK-RC-20 cells assessed as inhibition of cell growth measured at 48 hrs by MTT assay. As to conditions: SK-RC-20, 48 h. The format is functional, cell-based.
The subject of data set [6] is SK-RC-20. The data set can be described thus: Downregulation of MT1-MMP mRNA expression in human SK-RC-20 cells at 50 to 100 nM by RT-PCR analysis. The format is functional, cell-based. As to conditions: dose 50-100 nM.
The test system of a further data set is UO-31. The data set can be described thus: Antiproliferative activity against human UO-31 cells assessed as inhibition of cell growth measured after 24 to 72 hrs by MTT assay. As to conditions: time 24-72 hrs. The data set is classed as functional, cell-based.
The subject of a further data set is CAKI-1. The data set can be described thus: Antiproliferative activity against human CAKI-1 cells assessed as inhibition of cell growth measured after 24 to 72 hrs by MTT assay. The data set is classed as functional, cell-based. As to conditions: time 24-72 hrs.
Data set [7] concerns SK-RC-20. The data set can be described thus: Downregulation of MMP2 mRNA expression in human SK-RC-20 cells at 50 to 100 nM by RT-PCR analysis. The format is functional, cell-based. As to conditions: dose 50-100 nM.
The next data set has as its system A498. The data set can be described thus: Antiproliferative activity against human A498 cells assessed as inhibition of cell growth measured after 24 to 72 hrs by MTT assay. The data set is classed as functional, cell-based. The note with it: time 24-72 hrs.
Data set [8] relates to SK-RC-20. The data set can be described thus: Binding affinity to immobilized Syntenin in human SK-RC-20 cells at 5 uM incubated for 2 hrs by pull down assay. The format is cell-based.
For data set [9], the system named is SK-RC-20. The data set can be described thus: Antitumor activity in human SK-RC-20 cells xenografted in male BALB/c nude mouse model assessed as inhibition of tumor growth at 15 mg/kg measured every three days for 15 days. The data set is classed as functional, organism-based. As to conditions: time 15.0 day.
Data set [10] has as its system SK-RC-20. The data set can be described thus: Antitumor activity in human SK-RC-20 cells xenografted in male BALB/c nude mouse model assessed as reduction in tumor volume at 5 to 15 mg/kg measured every three days for 15 days. The data set is classed as functional, organism-based. The note with it: dose 5-15 mg/kg, time 15.0 day. (In general: In xenograft studies the graft and the host belong to different species.)

For a further data set, the system named is KMRC-1. The data set can be described thus: Antiproliferative activity against human KMRC-1 cells assessed as inhibition of cell growth measured after 24 to 72 hrs by MTT assay. The note with it: time 24-72 hrs. The data set is classed as functional, cell-based.
A short description of data set [11]: Toxicity in male BALB/c nude mouse assessed as change in body weight at 5 to 15 mg/kg measured every three days for 15 days. The data set is classed as organism-based. The note with it: in vivo, 360 h, dose 5-15 mg/kg, time 15 day.

The source made the active and inactive calls. The calls are words filed in the database; no cut-off is given here. Non-standard residues stand in square brackets, D forms with d. Residues, ends and D or L forms follow the SMILES beside them. Phg = N[C@H](C(=O)O)c1ccccc1

In general, IC50 refers to the concentration that inhibits the measured activity by half. By Kd is commonly meant the constant that tells how readily two partners part at equilibrium.

As for `CC[C@H](C)[C@H](NC(=O)[C@H](CC(=O)O)NC(=O)[C@@H](NC(=O)[C@@H](NC(=O)[C@H](Cc1c[nH]c2ccccc12)NC(=O)[C@H](Cc1cnc[nH]1)NC(=O)[C@H](CO)NC(=O)[C@@H](CCCNC(=N)N)NC(=O)[C@H](CCCNC(=N)N)NC(=O)[C@@H](CCCNC(=N)N)NC(=O)[C@H](CCCNC(=N)N)NC(=O)[C@@H](CCCNC(=N)N)NC(=O)CNC(=O)[C@@H](CCCNC(=N)N)NC(=O)[C@H](CCCNC(=N)N)NC(=O)[C@@H](CCCNC(=N)N)NC(C)=O)C(C)(C)C)C1CCCCC1)C(=O)O`, the IC50 amounted to 9710 nM in data set [1], 22100 nM in data set [3] and 14400 nM in data set [5]. The Stability result in [2] was “Unstable”. Besides, the Kd in [4] stood at 0.3 nM.
Consider `CC[C@H](C)[C@H](NC(=O)[C@H](CC(=O)O)NC(=O)[C@@H](NC(=O)[C@@H](NC(=O)[C@H](Cc1c[nH]c2ccccc12)NC(=O)[C@H](NC(=O)[C@@H](NC(C)=O)[C@@H](C)O)C(C)C)C(C)C)c1ccccc1)C(N)=O`, for which the dissociation constant Kd in data set [4] was 15.2 nM.
As to `CC[C@H](C)[C@H](NC(=O)[C@H](CC(=O)O)NC(=O)[C@@H](NC(=O)[C@@H](NC(=O)[C@H](Cc1c[nH]c2ccccc12)NC(=O)[C@@H](CCCCN)NC(=O)[C@H](C)NC(C)=O)C(C)C)c1ccccc1)C(N)=O`, the Kd in data set [4] was 9.07 nM.
Take `CC[C@H](C)[C@H](NC(=O)[C@@H](NC(=O)[C@@H](NC(=O)[C@@H](NC(=O)[C@H](Cc1c[nH]c2ccccc12)NC(=O)[C@@H](CCCCN)NC(=O)[C@@H](NC(C)=O)[C@@H](C)O)C(C)C)c1ccccc1)C(C)C)C(N)=O`: the Kd in [4] was 28.3 nM.
Still for that read-out and setting: under `CC[C@H](C)[C@H](NC(=O)[C@H](CC(=O)O)NC(=O)[C@H](NC(=O)[C@@H](NC(=O)[C@H](Cc1c[nH]c2ccccc12)NC(=O)[C@@H](CCCCN)NC(=O)[C@@H](NC(C)=O)[C@@H](C)O)C(C)C)C(C)C)C(N)=O` stands 19.7 nM; under `CC[C@H](C)[C@H](NC(=O)[C@H](CC(=O)O)NC(=O)[C@@H](NC(=O)[C@@H](NC(=O)[C@H](Cc1cnc[nH]1)NC(=O)[C@@H](CCCCN)NC(=O)[C@@H](NC(C)=O)[C@@H](C)O)C(C)C)c1ccccc1)C(N)=O`, 34.1 nM.
On to `CC[C@H](C)[C@H](NC(=O)[C@H](CC(=O)O)NC(=O)[C@@H](NC(=O)[C@@H](NC(=O)[C@H](Cc1c[nH]c2ccccc12)NC(=O)[C@H](CCCCN)NC(=O)[C@@H](NC(C)=O)[C@@H](C)O)C(C)C)c1ccccc1)C(N)=O` (Ac-TKWV[Phg]DI-NH2), for which the result in the data set on SK-RC-20 [6], in the data set on UO-31, in the data set on CAKI-1, in the data set with SK-RC-20 [7], in the data set on A498 and in the data set on SK-RC-20 [8] was Active. Besides, the outcome in the data set on SK-RC-20 [9], in the data set on SK-RC-20 [10] and in the data set with KMRC-1 was Active. Besides, the IC50 was 560 nM in data set [1], 1240 nM in [3] and 910 nM in data set [5]. For the same compound, the remaining at 4 h, 5 µM in [2] (mouse serum, read-out: Stability) is roughly 80%. In addition, in data set [4], the Kd came to 6.15 nM. The Activity entry in data set [11] was “Toxic”.
`CC[C@H](C)[C@H](NC(=O)[C@H](CC(=O)O)NC(=O)[C@@H](NC(=O)[C@@H](NC(=O)[C@H](Cc1c[nH]c2ccccc12)NC(=O)[C@H](Cc1cnc[nH]1)NC(=O)[C@@H](N)CO)[C@@H](C)O)[C@@H](C)CC)C(=O)O` (H-SHWTIDI-OH): in [2], the Stability entry is on record as “Unstable”.

Source of the values: ChEMBL document CHEMBL6109090, “Design, synthesis, and biological evaluation of novel and highly potent peptides targeting syntenin” (Eur J Med Chem, 2025).
